Experimental findings from US8754068B2, “Modified C-3 betulinic acid derivatives as HIV maturation inhibitors” (priority 2010, dated 2014) are described below.

In general, EC50 refers to the concentration that produces a half-maximal response.

This test has as its system recombinant NL4-3 virus (Renilla luciferase in nef, Gag P373S). As to the kind of experiment: HIV cell culture assay (luciferase reporter virus in MT-2 cells). It is filed as cell-based. As to conditions: NL43. As to the method: HIV cell culture assay—MT-2 cells and 293T cells were obtained from the NIH AIDS Research and Reference Reagent Program. MT-2 cells were propagated in RPMI 1640 media supplemented with 10% heat inactivated fetal bovine serum, […]. The 293T cells were propagated in DMEM media supplemented with 10% heat inactivated fetal bovine serum (FBS), 100 units/ml penicillin G and 100 μg/ml streptomycin. The proviral DNA clone of NL4-3 was obtained from the NIH AIDS Research and Reference Reagent Program. A recombinant NL4-3 virus, in which a section of the nef gene from NL4-3 was replaced with the Renilla luciferase gene, was used as a reference virus. In addition, residue Gag P373 was converted to P373S. Briefly, the recombinant virus was prepared by transfection of the altered proviral clone of NL4-3. Transfections were performed in 293T cells using LipofectAMINE PLUS from Invitrogen (Carlsbad, Calif.), according to manufacturer's instruction. The virus was titered in MT-2 cells using luciferase enzyme activity as a marker. Luciferase was quantitated using the Dual Luciferase kit from Promega (Madison, Wis.), with modifications to the manufacturer's protocol. The diluted Passive Lysis solution was pre-mixed with the re-suspended Luciferase Assay Reagent and the re-suspended Stop & Glo Substrate (2:1:1 ratio). Fifty (50) μL of the mixture was added to each aspirated well on assay plates and luciferase activity was measured immediately on a Wallac TriLux (Perkin-Elmer). Antiviral activities of inhibitors toward the recombinant virus were quantified by measuring luciferase activity in cells infected for 4-5 days with NLRluc recombinants in the presence serial dilutions of the inhibitor. Table 1 is the key for the data in Table 2.
As to `CC(C)[C@@H]1CC[C@]2(CO)CC[C@]3(C)[C@H](CC[C@@H]4[C@@]5(C)CC=C(c6ccc(C(=O)O)cc6)C(C)(C)[C@@H]5CC[C@]43C)[C@@H]12` [Example 10, 4-((1S,3aS,5aR,5bR,7aR,11aS,11bR,13aR,13bR)-3a-(hydroxymethyl)-1-isopropyl-5a,5b,8,8,11a-pentamethyl-2,3,3a,4,5,5a,5b,6,7,7a,8,11,11a,11b,12,13,13a,13b-octadecahydro-1H-cyclopenta[a]chrysen-9-yl)benzoic acid], the EC50 is less than 1000 nM.

For the molecule `C=C(C)[C@@H]1CC[C@]2(C(=O)O)CC[C@]3(C)[C@H](CC[C@@H]4[C@@]5(C)CC=C(c6ccc(C(=O)OC)cc6)C(C)(C)[C@@H]5CC[C@]43C)[C@@H]12` [Example 7, (1R,3aS,5aR,5bR,7aR,11aS,11bR,13aR,13bR)-9-(4-(methoxycarbonyl)phenyl)-5a,5b,8,8,11a-pentamethyl-1-(prop-1-en-2-yl)-2,3,3a,4,5,5a,5b,6,7,7a,8,11,11a,11b,12,13,13a,13b-octadecahydro-1H-cyclopenta[a]chrysene-3a-carboxylic acid], the EC50 is more than 1000 nM.

Consider `CC(C)[C@@H]1CC[C@]2(C(=O)O)CC[C@]3(C)[C@H](CC[C@@H]4[C@@]5(C)CC[C@H](c6cccc(C(=O)O)c6)C(C)(C)[C@@H]5CC[C@]43C)[C@@H]12` [Example 3a, (3aS,5aR,5bR,7aS,9S,11aS,13aR,13bR)-9-(3-carboxyphenyl)-1-isopropyl-5a,5b,8,8,11a-pentamethylicosahydro-1H-cyclopenta[a]chrysene-3a-carboxylic acid], for which the EC50 is 2000 nM.

For `C=C(C)[C@@H]1CC[C@]2(C(=O)O)CC[C@]3(C)[C@H](CC[C@@H]4[C@@]5(C)CC=C(c6cccc(NS(C)(=O)=O)c6)C(C)(C)[C@@H]5CC[C@]43C)[C@@H]12` [Example 4g, (1R,3aS,5aR,5bR,7aR,11aS,11bR,13aR,13bR)-5a,5b,8,8,11a-pentamethyl-9-(3-(methylsulfonamido)phenyl)-1-(prop-1-en-2-yl)-2,3,3a,4,5,5a,5b,6,7,7a,8,11,11a,11b,12,13,13a,13b-octadecahydro-1H-cyclopenta[a]chrysene-3a-carboxylic acid], the EC50 was more than 1000 nM.

As to `C=C(C)[C@@H]1CC[C@]2(C(=O)O)CC[C@]3(C)[C@H](CC[C@@H]4[C@@]5(C)CC=C(c6ccc(-c7cnc8ccccc8c7C(=O)O)cc6)C(C)(C)[C@@H]5CC[C@]43C)[C@@H]12` [Example 4m, 3-(4-((1R,3aS,5aR,5bR,7aR,11aS,11bR,13aR,13bR)-3a-carboxy-5a,5b,8,8,11a-pentamethyl-1-(prop-1-en-2-yl)-2,3,3a,4,5,5a,5b,6,7,7a,8,11,11a,11b,12,13,13a,13b-octadecahydro-1H-cyclopenta[a]chrysen-9-yl)phenyl)quinoline-4-carboxylic acid], the EC50 is more than 1000 nM.

As for `C=C(C)[C@@H]1CC[C@]2(CO)CC[C@]3(C)[C@H](CC[C@@H]4[C@@]5(C)CC=C(c6ccc(O)cc6C)C(C)(C)[C@@H]5CC[C@]43C)[C@@H]12` [Example 5h, 4-((1R,3aS,5aR,5bR,7aR,11aS,11bR,13aR,13bR)-3a-(hydroxymethyl)-5a,5b,8,8,11a-pentamethyl-1-(prop-1-en-2-yl)-2,3,3a,4,5,5a,5b,6,7,7a,8,11,11a,11b,12,13,13a,13b-octadecahydro-1H-cyclopenta[a]chrysen-9-yl)-3-methylphenol], the EC50 was more than 1000 nM.

Take `C=C(C)[C@@H]1CC[C@]2(C(=O)O)CC[C@]3(C)[C@H](CC[C@@H]4[C@@]5(C)CC=C(c6cccc(CCC(=O)O)c6)C(C)(C)[C@@H]5CC[C@]43C)[C@@H]12` [Example 4k, (1R,3aS,5aR,5bR,7aR,11aS,11bR,13aR,13bR)-9-(3-(2-carboxyethyl)phenyl)-5a,5b,8,8,11a-pentamethyl-1-(prop-1-en-2-yl)-2,3,3a,4,5,5a,5b,6,7,7a,8,11,11a,11b,12,13,13a,13b-octadecahydro-1H-cyclopenta[a]chrysene-3a-carboxylic acid]: the EC50 was less than 1000 nM.

As to `C=C(C)[C@@H]1CC[C@]2(C(=O)O)CC[C@]3(C)[C@H](CC[C@@H]4[C@@]5(C)CC=C(c6cccc(-c7nn[nH]n7)c6)C(C)(C)[C@@H]5CC[C@]43C)[C@@H]12` [Example 4i, (1R,3aS,5aR,5bR,7aR,11aS,11bR,13aR,13bR)-9-(3-(2H-tetrazol-5-yl)phenyl)-5a,5b,8,8,11a-pentamethyl-1-(prop-1-en-2-yl)-2,3,3a,4,5,5a,5b,6,7,7a,8,11,11a,11b,12,13,13a,13b-octadecahydro-1H-cyclopenta[a]chrysene-3a-carboxylic acid], the EC50 was more than 1000 nM.

Consider `C=C(C)[C@@H]1CC[C@]2(CO)CC[C@]3(C)[C@H](CC[C@@H]4[C@@]5(C)CC=C(c6ccc(C(=O)O)cc6)C(C)(C)[C@@H]5CC[C@]43C)[C@@H]12` [Example 5b, 4-((1R,3aS,5aR,5bR,7aR,11aS,11bR,13bR)-3a-(hydroxymethyl)-5a,5b,8,8,11a-pentamethyl-1-(prop-1-en-2-yl)-2,3,3a,4,5,5a,5b,6,7,7a,8,11,11a,11b,12,13,13a,13b-octadecahydro-1H-cyclopenta[a]chrysen-9-yl)benzoic acid], for which the EC50 was less than 1000 nM.

As to `C=C(C)[C@@H]1CC[C@]2(C(=O)O)CC[C@]3(C)[C@H](CC[C@@H]4[C@@]5(C)CC=C(c6ccc(C(=O)O)c(Cl)c6)C(C)(C)[C@@H]5CC[C@]43C)[C@@H]12` [Example 4o, (1R,3aS,5aR,5bR,7aR,11aS,11bR,13aR,13bR)-9-(4-carboxy-3-chlorophenyl)-5a,5b,8,8,11a-pentamethyl-1-(prop-1-en-2-yl)-2,3,3a,4,5,5a,5b,6,7,7a,8,11,11a,11b,12,13,13a,13b-octadecahydro-1H-cyclopenta[a]chrysene-3a-carboxylic acid], the EC50 is less than 1000 nM.

As to `C=C(C)[C@@H]1CC[C@]2(C(=O)O)CC[C@]3(C)[C@H](CC[C@@H]4[C@@]5(C)CC=C(c6ccccc6CCC(=O)O)C(C)(C)[C@@H]5CC[C@]43C)[C@@H]12` [Example 4l, (1R,3aS,5aR,5bR,7aR,11aS,11bR,13aR,13bR)-9-(2-(2-carboxyethyl)phenyl)-5a,5b,8,8,11a-pentamethyl-1-(prop-1-en-2-yl)-2,3,3a,4,5,5a,5b,6,7,7a,8,11,11a,11b,12,13,13a,13b-octadecahydro-1H-cyclopenta[a]chrysene-3a-carboxylic acid], the EC50 was more than 1000 nM.

Regarding `C=C(C)[C@@H]1CC[C@]2(CO)CC[C@]3(C)[C@H](CC[C@@H]4[C@@]5(C)CC=C(c6ccc(NS(C)(=O)=O)cc6)C(C)(C)[C@@H]5CC[C@]43C)[C@@H]12` [Example 5i, N-(4-((1R,3aS,5aR,5bR,7aR,11aS,11bR,13aR,13bR)-3a-(hydroxymethyl)-5a,5b,8,8,11a-pentamethyl-1-(prop-1-en-2-yl)-2,3,3a,4,5,5a,5b,6,7,7a,8,11,11a,11b,12,13,13a,13b-octadecahydro-1H-cyclopenta[a]chrysen-9-yl)phenyl)methanesulfonamide], the EC50 is more than 1000 nM.
